Results from patent publication US20150025233A1, “USE OF LIPID CONJUGATES IN THE TREATMENT OF DISEASES” (priority 2001, published 2015).
Read-outs that look alike come from different tables or passages of the source.

System: DTH-induced mice
Test: Dermal DTH response, oxalozone-induced ear swelling in mice (Experiments 5.1-5.4)
Type: in vivo, mouse
Settings: for inhibition at 3 µmol/kg: Mus musculus
Description: Three modes of administration were performed: 1) The Lipid-conjugate in saline was injected intraperitoneally daily beginning day 0 until day 6 (Table 5.1); 2) The Lipid-conjugate in saline was injected subcutaneously into the ear (adjacent to the challenged area) in two injections, either 3 h before application of oxalozone to the ear or 1 h after application of oxalozone to the ear (Table 5.2); 3) EtOH:H2O 1:1 was applied topically to both ears on top of the challenged area daily beginning day 0 until day 6 (Table 5.3); 4) the Lipid-conjugate was applied topically only to the right ear for 5 times 4-6 hours following the challenge (Table 5.4) using either 20 μL of 0.1% DEXPE in 50% EtOH or 20 μl of Dermovat (steroid ointment). In all experiments control Group A (late sensitized only) was treated by topical application of oxalozone to both sides of the ear 24 hours before measuring its swelling. […] Of particular interest are the results presented in Table 5.4, showing that although the topical administration of the drug was unilateral in both cases, the steroid affected both ears, while the topically applied Lipid-conjugate affected only the area to which it was applied, indicative of a lack of systemic infiltration of the Lipid-conjugate in this context.

[1] = Intraperitoneal, fully sensitized, 5 mg (15 μmol/kg)
[2] = Subcutaneous, fully sensitized, 1 mg (3 μmol/kg)
[3] = Unilateral topical, on right ear only, 3 μmol/kg, dermovat

In the case of `C[C@H]1C[C@H]2[C@@H]3CCC4=CC(=O)C=C[C@]4(C)[C@@]3(F)[C@@H](O)C[C@]2(C)[C@@]1(O)C(=O)CO` [betamethasone], the “Percent inhibition of ear swelling” value [1] is reported as 74%, the “Swelling after sensitization - Swelling of normal ear, Mean ± S.D. (n = 12)” value (“Swelling after sensitization … (n = 12)” for short) [1] is reported as 6.5 ± 1.35 0.1 mm and the inhibition at 3 µmol/kg (Topical, fully sensitized, 3 μmol/kg, read-out: Percent inhibition of ear swelling) is reported as 60%. The inhibition at 3 µmol/kg (Unilateral topical, on right ear only, 3 μmol/kg, dermovat, read-out: Percent inhibition, Left ear) was 63%, the inhibition at 3 µmol/kg (Unilateral topical, on right ear only, 3 μmol/kg, dermovat, read-out: Percent inhibition, Right ear) was 63% and the “Percent inhibition of ear swelling” value [2] was 72%. For the same compound, the “Swelling after sensitization … (n = 12)” value [2] was 8.1 ± 1.19 0.1 mm, the “Swelling after sensitization … (n = 12)” value (Topical, fully sensitized, 3 μmol/kg) was 10.6 ± 0.84 0.1 mm and the “Swelling after sensitization - Swelling of normal ear, Left ear, Mean ± S.D. (n = 10)” value [3] was 7.0 ± 1.0 0.1 mm. The “Swelling after sensitization - Swelling of normal ear, Right ear, Mean ± S.D. (n = 10)” value [3] was 7.0 ± 1.0 0.1 mm.
